Results on 46 compounds are retold here after US12421212B2, “Substituted benzenecarboxamides as IL-17A modulators” (DiCE Alpha, Inc., priority 2019, dated 2025).

Structures are written as SMILES.

One assay concerns the target T1, IL-17A/A (Homo sapiens, UniProt Q16552).
T1 construct: purchased Genscript Z03228
T1 sequence (Q16552 24-155): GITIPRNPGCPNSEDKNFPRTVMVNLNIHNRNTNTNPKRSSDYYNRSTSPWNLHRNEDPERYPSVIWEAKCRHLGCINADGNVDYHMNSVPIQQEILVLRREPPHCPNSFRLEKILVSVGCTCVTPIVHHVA
The experiment in a line: IL-17A/A HEK-Blue Cell Assay. The class given is cell-based. As to conditions: HEK-Blue IL-17A reporter cell line, SEAP readout at A630, 20 hours incubation with IL-17A/A; top concentration 10 uM, 1 uM or 0.3 uM.
`CCC(=O)N[C@@H](C(=O)N1CCN(C)CC1)[C@@H](C)c1ccc(NC(=O)[C@@H](NC(=O)c2cccn2CC2CC2)[C@H]2CC[C@H](C)CC2)c(F)c1` [Compound 283]: the “IL-17A/A inhibition (pIC50)” value is reported as “A (compounds having a pIC50 of greater than or equal 8 as A)”.

`CC(C)n1nccc1C(=O)N[C@H](C(=O)Nc1ccc([C@H](C)[C@@H](NC(=O)NC2CC2)C(=O)N2CCNCC2)cc1F)C1CCCCC1` [Compound 315]: the “IL-17A/A inhibition (pIC50)” value is on record as “A (compounds having a pIC50 of greater than or equal 8 as A)”.

The assay is the same for the next values; noted with them: HEK-Blue IL-17A reporter cell line, SEAP readout at A630, 20 hours incubation with IL-17A/A; top concentration 10 uM, 1 uM or 0.3 uM; read-out: IL-17A/A inhibition (pIC50) (converted).
`CCC(=O)N[C@@H](C(=O)N1CCN(C)CC1)[C@@H](C)c1ccc(NC(=O)[C@@H](NC(=O)C(F)(F)c2cncc(OC)c2)[C@H]2CC[C@H](C)CC2)c(F)c1` [Compound 281]: the IC50 was 10 to 100 nM.

Turning to `CCC(=O)N[C@@H](C(=O)N1CCN(C)CC1)[C@@H](C)c1ccc(NC(=O)[C@@H](NC(=O)C(F)(F)c2cccc(C#N)c2)[C@H]2CC[C@H](C)CC2)c(F)c1` [Compound 282], the IC50 is less than 10 nM.

Turning to `CCC(=O)N[C@@H](C(=O)N1CCN(C)CC1)[C@@H](C)c1ccc(NC(=O)[C@@H](NC(=O)c2conc2C(C)C)[C@H]2CC[C@H](C)CC2)c(F)c1` [Compound 284], the IC50 was less than 10 nM.

For `CCC(=O)N[C@@H](C(=O)N1CCN(C)CC1)[C@@H](C)c1ccc(NC(=O)[C@@H](NC(=O)C(F)(F)c2ccc(OC)nc2)[C@H]2CC[C@H](C(F)(F)F)CC2)c(F)c1` [Compound 285], the IC50 was 10 to 100 nM.

As for `CCC(=O)N[C@@H](C(=O)N1CCN(C)CC1)[C@@H](C)c1ccc(NC(=O)[C@@H](NC(=O)C(F)(F)c2cccc(C#N)c2)[C@H]2CC[C@H](C(F)(F)F)CC2)c(F)c1` [Compound 286], the IC50 was 10 to 100 nM.

In the case of `CCC(=O)N[C@@H](C(=O)N1CCN(C)CC1)[C@@H](C)c1ccc(NC(=O)C(NC(=O)c2conc2CC)C2CCc3ccccc32)c(F)c1` (stereo partly shown) [Compound 287], the IC50 is less than 10 nM.

For the compound `CCC(=O)N[C@@H](C(=O)N1CCN(C)CC1)[C@@H](C)c1ccc(NC(=O)C(NC(=O)c2ccnn2CC)[C@H](C)c2ccccc2)c(F)c1` (stereo partly shown) [Compound 288], the IC50 is 10 to 100 nM.

With `CCC(=O)N[C@@H](C(=O)N1CCN(C)CC1)[C@@H](C)c1ccc(NC(=O)C(NC(=O)c2ccnn2CC)[C@@H](C)c2ccccc2)c(F)c1` (stereo partly shown) [Compound 289], the IC50 is 10 to 100 nM.

With `CCC(=O)N[C@@H](C(=O)N1CCN(C)CC1)[C@@H](C)c1ccc(NC(=O)C(NC(=O)C(F)(F)c2cccc(C#N)c2)[C@@H](C)c2ccccc2)c(F)c1` (stereo partly shown) [Compound 290], the IC50 is less than 10 nM.

As to `CCC(=O)N[C@@H](C(=O)N1CCN(C)CC1)[C@@H](C)c1ccc(NC(=O)C(NC(=O)c2ccnn2C(C)C)[C@@H](C)c2ccccc2)c(F)c1` (stereo partly shown) [Compound 291], the IC50 was 10 to 100 nM.

Take `CCC(=O)N[C@@H](C(=O)N1CCN(C)CC1)[C@@H](C)c1ccc(NC(=O)C(NC(=O)C(F)(F)c2cccc(C#N)c2)C2CCCC2)c(F)c1` (stereo partly shown) [Compound 292]: the IC50 is 10 to 100 nM.

For the compound `CCC(=O)N[C@@H](C(=O)N1CCN(C)CC1)[C@@H](C)c1ccc(NC(=O)C(NC(=O)c2ccnn2CC)C(CC)c2ccccc2)c(F)c1` (stereo partly shown) [Compound 293], the IC50 is 10 to 100 nM.

With `CCC(=O)N[C@@H](C(=O)N1CCN(C)CC1)[C@@H](C)c1ccc(NC(=O)[C@@H](NC(=O)C(F)(F)c2ccc(OC)nc2)[C@H]2CC[C@H](C)CC2)c(F)c1` [Compound 295], the IC50 was less than 10 nM.

Turning to `CCC(=O)N[C@@H](C(=O)N1CCN(C)CC1)[C@@H](C)c1ccc(NC(=O)[C@@H](NC(=O)c2ccnn2CC)C2CCC(C)(C)CC2)c(F)c1` [Compound 296], the IC50 is 10 to 100 nM.

Take `CCC(=O)N[C@@H](C(=O)N1CCN(C)CC1)[C@@H](C)c1ccc(NC(=O)[C@@H](NC(=O)c2ccnn2CC)C2CCCCCC2)cc1` [Compound 297]: the IC50 was 10 to 100 nM.

In the case of `CCC(=O)N[C@@H](C(=O)N1CCN(C)CC1)[C@@H](C)c1ccc(NC(=O)[C@@H](NC(=O)c2conc2CC)C2CCCCC2)cc1` [Compound 298], the IC50 is 10 to 100 nM.

On to `CCC(=O)N[C@@H](C(=O)N1CCN(C)CC1)[C@@H](C)c1ccc(NC(=O)[C@@H](NC(=O)c2ccnn2CC)[C@H]2CC[C@H](C)CC2)cc1` [Compound 299], for which the IC50 was 10 to 100 nM.

Consider `CCC(=O)N[C@@H](C(=O)N1CCN(C)CC1)[C@@H](C)c1ccc(NC(=O)[C@@H](NC(=O)C(F)(F)c2cccc(C#N)c2)C2CCCCC2)cc1` [Compound 300], for which the IC50 is 10 to 100 nM.

Turning to `C[C@@H](c1ccc(NC(=O)[C@@H](NC(=O)C(F)(F)c2cccc(C#N)c2)C2CCCCC2)cc1)[C@@H](NC(=O)c1cnns1)C(=O)N1CCN(C)CC1` [Compound 301], the IC50 is less than 10 nM.

On to `CCC(=O)N[C@H](Cc1ccc(NC(=O)[C@@H](NC(=O)C(F)(F)c2cccc(C#N)c2)C2CCCCC2)c(F)c1)C(=O)N1CCN(C)CC1` [Compound 302], for which the IC50 is 10 to 100 nM.

For `CCn1nccc1C(=O)N[C@H](C(=O)Nc1ccc([C@H](C)[C@@H](NC(=O)c2cncs2)C(=O)N2CCN(C)CC2)cc1F)C1CCCCC1` [Compound 303], the IC50 is 10 to 100 nM.

`CCn1nccc1C(=O)N[C@H](C(=O)Nc1ccc([C@H](C)[C@@H](NC(=O)c2cccs2)C(=O)N2CCN(C)CC2)cc1F)C1CCCCC1` [Compound 304]: the IC50 is 10 to 100 nM.

In the case of `CCn1nccc1C(=O)N[C@H](C(=O)Nc1ccc([C@H](C)[C@@H](NC(=O)c2cnsc2)C(=O)N2CCN(C)CC2)cc1F)C1CCCCC1` [Compound 305], the IC50 was 10 to 100 nM.

As to `CCn1nccc1C(=O)N[C@H](C(=O)Nc1ccc([C@H](C)[C@@H](NC(=O)c2cnnn2C)C(=O)N2CCN(C)CC2)cc1F)C1CCCCC1` [Compound 306], the IC50 is 10 to 100 nM.

With `CCn1nccc1C(=O)N[C@H](C(=O)Nc1ccc([C@H](C)[C@@H](NC(=O)CC2CC2)C(=O)N2CCN(C)CC2)cc1F)C1CCCCC1` [Compound 307], the IC50 is 10 to 100 nM.

Regarding `C[C@@H](c1ccc(NC(=O)[C@@H](NC(=O)C(F)(F)c2cccc(C#N)c2)C2CCCCC2)c(F)c1)[C@@H](NC(=O)CC1CC1)C(=O)N1CCN(C)CC1` [Compound 308], the IC50 was less than 10 nM.

For `COc1cncc(C(F)(F)C(=O)N[C@H](C(=O)Nc2ccc([C@H](C)[C@@H](NC(=O)c3cnns3)C(=O)N3CCN(C)CC3)cc2F)C2CCCCC2)c1` [Compound 309], the IC50 was 10 to 100 nM.

As to `CCn1nccc1C(=O)N[C@H](C(=O)Nc1ccc([C@H](C)[C@@H](NC(=O)c2cnns2)C(=O)N2CCN(C)CC2)cc1F)C1CCCCC1` [Compound 310], the IC50 is 10 to 100 nM.

For the compound `C[C@@H](c1ccc(NC(=O)[C@@H](NC(=O)C(F)(F)c2cccc(C#N)c2)C2CCCCC2)c(F)c1)[C@@H](NC(=O)c1cnns1)C(=O)N1CCN(C)CC1` [Compound 311], the IC50 was less than 10 nM.

As to `CC(C)n1nccc1C(=O)N[C@H](C(=O)Nc1ccc([C@H](C)[C@@H](NC(=O)c2cnns2)C(=O)N2CCN(C)CC2)cc1F)C1CCCCC1` [Compound 312], the IC50 was less than 10 nM.

As to `CCn1nccc1C(=O)N[C@H](C(=O)Nc1ccc([C@H](C)[C@@H](NS(=O)(=O)CC)C(=O)N2CCN(C)CC2)cc1F)C1CCCCC1` [Compound 313], the IC50 was 10 to 100 nM.

On to `CCn1nccc1C(=O)N[C@H](C(=O)Nc1ccc([C@H](C)[C@@H](NC(=O)NC2CC2)C(=O)N2CCN(C)CC2)cc1F)C1CCCCC1` [Compound 314], for which the IC50 is 10 to 100 nM.

Consider `C[C@@H](c1ccc(NC(=O)[C@@H](NC(=O)C(F)(F)c2cccc(C#N)c2)C2CCCCC2)c(F)c1)[C@@H](NC(=O)NC1CC1)C(=O)N1CCN(C)CC1` [Compound 316], for which the IC50 is less than 10 nM.

Take `CNC(=O)N[C@@H](C(=O)N1CCN(C)CC1)[C@@H](C)c1ccc(NC(=O)[C@@H](NC(=O)C(F)(F)c2cccc(C#N)c2)C2CCCCC2)c(F)c1` [Compound 317]: the IC50 is 10 to 100 nM.

Consider `C[C@@H](c1ccc(NC(=O)[C@@H](NC(=O)C(F)(F)c2cccc(C#N)c2)C2CCCCC2)c(F)c1)[C@@H](NC(=O)NC1CCC1)C(=O)N1CCN(C)CC1` [Compound 318], for which the IC50 was 10 to 100 nM.

`CCC(=O)N[C@@H](C(=O)N1CCN(C)CC1)[C@@H](CC)c1ccc(NC(=O)[C@@H](NC(=O)c2ccnn2CC)C2CCCCCC2)cc1` [Compound 319]: the IC50 is 10 to 100 nM.

Regarding `CCn1nccc1C(=O)N[C@H](C(=O)Nc1ccc(C[C@@H](Nc2ncnc3cnccc23)C(=O)N2CCN(C)CC2)cc1F)C1CCCCC1` [Compound 320], the IC50 was 10 to 100 nM.

For `CCn1nccc1C(=O)N[C@H](C(=O)Nc1ccc(C[C@@H](NC(=O)c2ccnn2C2CCN(C)CC2)C(=O)N2CCN(C)CC2)cc1F)C1CCCCC1` [Compound 321], the IC50 was 10 to 100 nM.

For `CCn1nccc1C(=O)N[C@H](C(=O)Nc1ccc(C[C@@H](NC(=O)c2cnns2)C(=O)N2CCN(C)CC2)cc1F)C1CCCCC1` [Compound 322], the IC50 was 10 to 100 nM.

Consider `COc1ccc(C(F)(F)C(=O)N[C@H](C(=O)Nc2ccc(C[C@@H](NC(=O)c3cnns3)C(=O)N3CCN(C)CC3)cc2F)C2CCCCC2)cn1` [Compound 323], for which the IC50 is 10 to 100 nM.

With `COc1cncc(C(F)(F)C(=O)N[C@H](C(=O)Nc2ccc(C[C@@H](NC(=O)c3cnns3)C(=O)N3CCN(C)CC3)cc2F)C2CCCCC2)c1` [Compound 324], the IC50 was 10 to 100 nM.

Take `CCC(=O)N[C@H](Cc1ccc(NC(=O)[C@@H](NC(=O)c2ccnn2CC)C2CCCCC2)c(F)c1)C(=O)N1CCN(Cc2ccccc2)CC1` [Compound 325]: the IC50 is 10 to 100 nM.

Regarding `CCn1nccc1C(=O)N[C@H](C(=O)Nc1ccc([C@H](C)[C@@H](NC(=O)C2(F)CC2)C(=O)N2CCN(C)CC2)cc1F)C1CCCCCC1` [Compound 326], the IC50 is 10 to 100 nM.

`CCn1nccc1C(=O)N[C@H](C(=O)Nc1ccc([C@H](C)[C@@H](NC(=O)NC(C)C)C(=O)N2CCN(C)CC2)cc1F)C1CCCCCC1` [Compound 327]: the IC50 was 10 to 100 nM.
